In patent US8329702B2, “Heterocycles useful as modulators of ion channels” (Vertex Pharmaceuticals Incorporated, priority 2005, dated 2012):
pIC50: −log10 of the molar value. Where two headings read alike, the source gives them in different places.

Assays:
NaV1.8 [1] = target: T1, NaV1.8 (Homo sapiens, UniProt Q9Y5Y9); test: Activity against NaV1.8 channel (Table 3); assay type: cell-based
Method: Compounds of the invention are useful as antagonists of voltage-gated sodium ion channels. Antagonist properties of test compounds were assessed as follows. Cells expressing the NaV of interest were placed into microtiter plates. After an incubation period, the cells were stained with fluorescent dyes sensitive to the transmembrane potential. The test compounds were added to the microtiter plate. The cells were stimulated with either a chemical or electrical means to evoke a NaV dependent membrane potential change from unblocked channels, which was detected and measured with trans-membrane potential-sensitive dyes. Antagonists were detected as a decreased membrane potential response to the stimulus. The optical membrane potential assay utilized voltage-sensitive FRET sensors described by Gonzalez and Tsien (See, Gonzalez, J. E. and R. Y. Tsien (1995) “Voltage sensing by fluorescence resonance energy transfer in single cells” Biophys J 69(4): 1272-80, and Gonzalez, J. E. and R. Y. Tsien (1997) “Improved indicators of cell membrane potential that use fluorescence resonance energy transfer” Chem Biol 4(4): 269-77) in combination with instrumentation for measuring fluorescence changes such as the Voltage/Ion Probe Reader (VIPR®) (See, Gonzalez, J. E., K. Oades, et al. (1999) “Cell-based assays and instrumentation for screening ion-channel targets” Drug Discov Today 4(9): 431-439).
24 hours before the assay on VIPR, CHO cells endogenously expressing a NaV1.2 type voltage-gated NaV are seeded in 96-well poly-lysine coated plates at 60,000 cells per well. Other subtypes are performed in an analogous mode in a cell line expressing the NaV of interest.
The following is an example of how NaV1.3 inhibition activity is measured using the optical membrane potential method#2. Other subtypes are performed in an analogous mode in a cell line expressing the NaV of interest.
Patch clamp electrophysiology was used to assess the efficacy and selectivity of sodium channel blockers in dorsal root ganglion neurons. Rat neurons were isolated from the dorsal root ganglions and maintained in culture for 2 to 10 days in the presence of NGF (50 ng/ml) (culture media consisted of NeurobasalA supplemented with B27, glutamine and antibiotics). Small diameter neurons (nociceptors, 8-12 μm in diameter) have been visually identified and probed with fine tip glass electrodes connected to an amplifier (Axon Instruments). The “voltage clamp” mode has been used to assess the compound's IC50 holding the cells at −60 mV. In addition, the “current clamp” mode has been employed to test the efficacy of the compounds in blocking action potential generation in response to current injections. The results of these experiments have contributed to the definition of the efficacy profile of the compounds.
TTX-resistant sodium currents were recorded from DRG somata using the whole-cell variation of the patch clamp technique. Recordings were made at room temperature (˜22° C.) with thick walled borosilicate glass electrodes (WPI; resistance 3-4 MΩ) using an Axopatch 200B amplifier (Axon Instruments). After establishing the whole-cell configuration, approximately 15 minutes were allowed for the pipette solution to equilibrate within the cell before beginning recording. Currents were lowpass filtered between 2-5 kHz and digitally sampled at 10 kHz. Series resistance was compensated 60-70% and was monitored continuously throughout the experiment. The liquid junction potential (−7 mV) between the intracellular pipette solution and the external recording solution was not accounted for in the data analysis. Test solutions were applied to the cells with a gravity driven fast perfusion system (SF-77; Warner Instruments).
Dose-response relationships were determined in voltage clamp mode by repeatedly depolarizing the cell from the experiment specific holding potential to a test potential of +10 mV once every 60 seconds. […]

NaV1.8 [2] = target: T1, NaV1.8; conditions: read-out: TTX IC50; cited from earlier work
[3] = neuropathic pain, modest efficacy; cited from earlier work

T1 sequence (Q9Y5Y9 whole entry, looked up): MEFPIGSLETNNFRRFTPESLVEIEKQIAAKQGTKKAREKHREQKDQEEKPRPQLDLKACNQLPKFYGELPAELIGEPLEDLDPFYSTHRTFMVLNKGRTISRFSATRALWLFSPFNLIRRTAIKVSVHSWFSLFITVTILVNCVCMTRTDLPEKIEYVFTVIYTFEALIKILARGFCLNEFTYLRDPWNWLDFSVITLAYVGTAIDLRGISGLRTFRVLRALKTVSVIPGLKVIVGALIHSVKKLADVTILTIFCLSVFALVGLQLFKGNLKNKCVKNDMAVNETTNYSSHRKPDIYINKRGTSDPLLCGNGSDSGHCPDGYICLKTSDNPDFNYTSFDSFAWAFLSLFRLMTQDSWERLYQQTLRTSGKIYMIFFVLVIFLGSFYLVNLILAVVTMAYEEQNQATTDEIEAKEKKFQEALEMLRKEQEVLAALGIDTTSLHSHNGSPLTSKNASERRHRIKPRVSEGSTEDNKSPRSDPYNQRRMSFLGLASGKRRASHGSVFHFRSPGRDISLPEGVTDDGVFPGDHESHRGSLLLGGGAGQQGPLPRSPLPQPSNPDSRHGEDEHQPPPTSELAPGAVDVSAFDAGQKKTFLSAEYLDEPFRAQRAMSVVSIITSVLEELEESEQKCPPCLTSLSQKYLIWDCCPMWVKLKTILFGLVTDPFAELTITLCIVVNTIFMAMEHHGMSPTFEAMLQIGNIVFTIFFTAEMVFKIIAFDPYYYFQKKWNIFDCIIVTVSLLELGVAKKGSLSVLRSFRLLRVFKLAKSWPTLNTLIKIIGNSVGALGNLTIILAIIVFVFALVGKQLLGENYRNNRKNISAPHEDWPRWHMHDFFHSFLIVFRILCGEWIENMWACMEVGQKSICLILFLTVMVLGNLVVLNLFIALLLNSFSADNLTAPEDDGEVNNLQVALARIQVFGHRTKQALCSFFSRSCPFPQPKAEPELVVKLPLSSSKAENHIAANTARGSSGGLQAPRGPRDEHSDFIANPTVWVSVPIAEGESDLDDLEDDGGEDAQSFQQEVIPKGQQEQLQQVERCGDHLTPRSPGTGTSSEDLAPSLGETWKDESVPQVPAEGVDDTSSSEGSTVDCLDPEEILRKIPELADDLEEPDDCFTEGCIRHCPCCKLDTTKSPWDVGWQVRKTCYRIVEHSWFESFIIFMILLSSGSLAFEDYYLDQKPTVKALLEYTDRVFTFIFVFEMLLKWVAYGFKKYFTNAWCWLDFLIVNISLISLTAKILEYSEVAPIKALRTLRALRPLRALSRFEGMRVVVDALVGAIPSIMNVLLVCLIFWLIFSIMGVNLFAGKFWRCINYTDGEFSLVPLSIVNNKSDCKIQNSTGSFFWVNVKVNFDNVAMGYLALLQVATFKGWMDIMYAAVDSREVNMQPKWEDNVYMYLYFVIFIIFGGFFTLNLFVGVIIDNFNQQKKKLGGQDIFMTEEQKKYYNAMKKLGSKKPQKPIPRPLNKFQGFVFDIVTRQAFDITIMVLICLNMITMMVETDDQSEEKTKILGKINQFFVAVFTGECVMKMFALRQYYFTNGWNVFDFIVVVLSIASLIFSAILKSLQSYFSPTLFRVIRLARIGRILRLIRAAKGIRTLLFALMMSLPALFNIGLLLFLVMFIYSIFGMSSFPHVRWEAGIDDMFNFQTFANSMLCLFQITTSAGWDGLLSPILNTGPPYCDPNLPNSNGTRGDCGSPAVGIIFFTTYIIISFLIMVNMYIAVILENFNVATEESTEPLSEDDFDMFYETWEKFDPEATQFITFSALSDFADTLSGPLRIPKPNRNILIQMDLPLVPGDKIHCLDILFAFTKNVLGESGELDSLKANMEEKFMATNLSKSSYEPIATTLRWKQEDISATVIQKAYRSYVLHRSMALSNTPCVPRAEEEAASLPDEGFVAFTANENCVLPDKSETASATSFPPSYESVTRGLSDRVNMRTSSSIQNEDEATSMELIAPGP

CC(C)OC(=O)N1CCN(c2nc(-c3ccccc3O)cs2)CC1 [Compound 6]
pIC50 (NaV1.8 [1]): < 4.70

CC(C)COC(=O)N1CCN(c2nsc(-c3ccccc3O)n2)CC1 [Compound 17, Isobutyl 4-(5-(2-hydroxyphenyl)-1,2,4-thiadiazol-3-yl)piperazine-1-carboxylate]
pIC50 (NaV1.8 [1]): < 4.70

CCCCS(=O)(=O)N1CCN(c2nc(-c3ccccc3O)cs2)CC1 [Compound 4]
pIC50 (NaV1.8 [1]): < 4.70

O=C(OC1CCOC1)N1CCN(c2nc(-c3ccccc3F)cs2)CC1 (stereo not shown) [Compound 12]
pIC50 (NaV1.8 [1]): < 4.70

O=C(O[C@H]1CCOC1)N1CCN(c2nc(-c3ccccc3O)cs2)CC1 [Compound 7]
pIC50 (NaV1.8 [1]): < 4.70

O=C(OCc1ccccc1)N1CCN(c2nc(-c3ccccc3F)cs2)CC1 [Compound 9, Benzyl 4-(4-(2-fluorophenyl)thiazol-2-yl)piperazine-1-carboxylate]
pIC50 (NaV1.8 [1]): < 4.70

Oc1ccccc1-c1csc(N2CCCCC2)n1 [Compound 1]
pIC50 (NaV1.8 [1]): 4.70 to 5.00

O=C([C@H]1CCCO1)N1CCN(c2nc(-c3ccccc3F)cs2)CC1 [Compound 14]
pIC50 (NaV1.8 [1]): < 4.70

CC(C)COC(=O)N1CCN(c2nc(-c3ccccc3O)cs2)CC1 [Compound 2]
pIC50 (NaV1.8 [1]): < 4.70

NC1=N[C@H](O)[C@H]2[C@H]3O[C@]4(O)O[C@@H]([C@@H](O)[C@@]2(N1)[C@@H]4O)[C@]3(O)CO [TTX, tetrodotoxin]
pIC50 (NaV1.8 [2]): < 4.30

CC(C)COC(=O)N1CCN(c2nc(-c3ccccc3F)cs2)CC1 [Compound 10, Isobutyl 4-(4-(2-fluorophenyl)thiazol-2-yl)piperazine-1-carboxylate]
pIC50 (NaV1.8 [1]): < 4.70

COCCOC(=O)N1CCN(c2nc(-c3ccccc3F)cs2)CC1 [Compound 13]
pIC50 (NaV1.8 [1]): < 4.70

CC(C)COC(=O)NC1CCN(c2nc(-c3ccccc3O)ns2)CC1 [Compound 16, Isobutyl 1-(3-(2-hydroxyphenyl)-1,2,4-thiadiazol-5-yl)piperidin-4-ylcarbamate]
pIC50 (NaV1.8 [1]): < 4.70

CC(C)(C)COC(=O)N1CCN(c2nc(-c3ccccc3F)cs2)CC1 [Compound 11]
pIC50 (NaV1.8 [1]): < 4.70

NCC1(CC(=O)O)CCCCC1 [Gabapentin]
patients in which it works [3]: 60%

O=C([C@@H]1CCCO1)N1CCN(c2nc(-c3ccccc3O)cs2)CC1 [Compound 5]
pIC50 (NaV1.8 [1]): < 4.70

COc1ccccc1-c1csc(N2CCN(C(=O)OC(C)(C)C)CC2)n1 [Compound 3]
pIC50 (NaV1.8 [1]): 4.70 to 5.00

CC(C)[C@@H](O)C(=O)NCC1CCN(c2nc(-c3ccccc3O)ns2)CC1 [Compound 15]
pIC50 (NaV1.8 [1]): < 4.70

COCCOC(=O)N1CCN(c2nc(-c3ccccc3O)cs2)CC1 [Compound 8]
pIC50 (NaV1.8 [1]): < 4.70
